Assay results taken from the OPERA property sets (Mansouri et al. 2018).

Conditions: for log10 BCF: fish

SMILES	melting point [°C]	boiling point [°C]	other results
COc1nccnc1N(C(C)=O)S(=O)(=O)c1ccc(N)cc1	199		
Cc1c(CN2CCOC(c3ccccc3)C2C)c(=O)n(-c2ccccc2)n1C (configuration not stated)	150		
CCCSC	-113	95.6	log10 vapour pressure (mmHg): 1.71
CCCCCCCOO	35.5		
C1CNCCN1		146	log10 vapour pressure (mmHg): -0.796; ready biodegradability: not readily biodegradable; log10 BCF: 0.59
Clc1ccc(Oc2ccccc2Cl)cc1Cl			log10 vapour pressure (mmHg): -3.85
CC(C)S[C@@H]1O[C@H](CO)[C@H](O)[C@H](O)[C@H]1O	121		
Fc1cc(F)c(F)c(F)c1F	-47.3	85.7	log10 vapour pressure (mmHg): 1.83
O=c1[nH]c2ccccc2n1CCCN1CCN(C(c2ccccc2)c2ccccc2)CC1	154		
CCCCC/C=C\C/C=C\CCCCCCCC(=O)O	-8.5	365	log10 vapour pressure (mmHg): -6.06
Cc1ccc(C(=O)N(C)C)cc1	41		
CCCOCC	-128	63.2	log10 vapour pressure (mmHg): 2.26
COC(=O)c1cccc(C)c1		221	
C=C1CC[C@@]2(O)[C@H]3Cc4ccc(O)c5c4[C@@]2(CCN3CC2CC2)[C@H]1O5	189		
CNC(=O)Oc1cc(C)cc(C)c1	99		log10 Koc (L/kg): 1.71; log10 vapour pressure (mmHg): -3.44; ready biodegradability: not readily biodegradable; log10 BCF: 0.4
c1ccc(-c2nc3ccccc3o2)cc1	103		
CC(=O)Nc1ccc(/N=N/c2cc(C)ccc2O)cc1	195		log10 vapour pressure (mmHg): -10.3
CCCCCSCCCCC	-51.3		
CCOC(=O)CN(C(=O)CCl)c1c(CC)cccc1CC	49.5		log10 Koc (L/kg): 2
CC(C)(C)c1cccc(O)c1	42.3	240	log10 vapour pressure (mmHg): -1.7; ready biodegradability: not readily biodegradable
Oc1ccc2ccc(O)cc2c1	193		
CC=Cc1ccc(OC)c(OC)c1	18	270	
N#CCc1ccccc1[N+](=O)[O-]	84		
CCSCCSP(=S)(OC)OC			log10 vapour pressure (mmHg): -4.77
CCOP(=S)(OCC)OCCSCC			log10 Koc (L/kg): 2.59
CCC(C)C(C(=O)OCC[N+](C)(CC)CC)c1ccccc1.[Br-] (configuration not stated)	102		

SMILES	melting point [°C]	boiling point [°C]	other results
C=C[Si](C)(C)Cl		83.5	
CC=C(C)C(C)C			log10 vapour pressure (mmHg): 1.83
CCCCCC(CC)CC		166	
C[C@]12CC[C@H](O)C[C@H]1CC[C@@H]1[C@@H]2[C@H](O)C[C@]2(C)[C@@H](c3ccc(=O)oc3)CC[C@]12O	254		
Cc1ccc(S(=O)(=O)N(Cl)Cl)cc1	83		
NCc1ccncc1	-7.6	230	
C=CCCCCCCCCCO	-2	250	
CCC1(c2ccccc2)CCC(=O)NC1=O (configuration not stated)	84		
O=c1cccccc1	-7		
O=C1c2ccccc2C(=O)C1C(=O)C(c1ccccc1)c1ccccc1	146		log10 vapour pressure (mmHg): -9.99
O=C(Nc1cccc(N(CCO)CCO)c1)c1ccccc1			ready biodegradability: not readily biodegradable
CCNC(=O)Nc1ncc([N+](=O)[O-])s1	228		
CCC[C@H]1CCCCN1		166	
OC[C@@H]1CCCN2CCCC[C@H]12	70	270	
Cc1cnc2ccccc2c1C	73.5	291	
CCCCCCC#N		183	
Fc1c(F)c(F)c(I)c(F)c1F	-29	166	
Sc1cccc(Cl)c1		206	
CCCCCCCCCCCC(=O)OOC(=O)CCCCCCCCCCC	49		ready biodegradability: readily biodegradable
NCc1ccc(Br)cc1	20	250	
N#CC(=O)c1ccccc1	32.5	206	
CN(C)C(=O)OC1=CC(=O)CC(C)(C)C1	45.5		
O=C(O)CCCCCCCCCCF	36		
CC(Br)CCl (configuration not stated)		118	
COc1ccc(/C=C/NC=O)cc1	132		
Oc1c2ccccc2cc2ccccc12	152		
